Measured values taken from patent publication US10189881B2, “MPS peptides and use thereof” (The Regents of the University of California, priority 2013, dated 2019).
“Also recorded” adds a separate entry of the source. Peptide text beside a SMILES is read from it.

How the values were obtained:
CL1-0 cells = assay: MTS cell viability, drug treatment of mock transfected cells; type: cell-based, human; settings: control mock transfected CL1-0 cells; increasing concentrations, 72 hours
Description: (§1) FIGS. 10A and 10B show implication of phospho-MARCKS levels in drug resistance. (A) Effects of ectopic V5-tagged PSD-mutant or wild type MARCKS expression on CL1-0 cells in response to various drug treatments. (B) Effects of MARCKS shRNA silencing on A549 cells in response to various drug treatments. Western blot analyses were carried out to determine phospho-MARCKS and total MARCKS levels in these stable cells with appropriate antibodies. The cells were subjected to various doses of cisplatin, paclitaxel, erlotinib or dasatinib for treatment, as indicated. After 72 hours of treatment, cell viability was determinate by MTS assays. Data shown as mean±SD. *P<0.05 versus mock (A; n=3); *P<0.05 versus control shRNA (B; n=4).
To determine if the MARCKS phosphorylation step can serve as a therapeutic target, Applicants evaluated whether the status of MARCKS PSD phosphorylation could alter the sensitivity of NSCLC cells to chemotherapeutic agents and tyrosine kinase inhibitors (TKIs). The V5-tagged wild-type and PSD-mutated (S159/163A) MARCKS constructs were generated and transfected into low MARCKS-expressing CL1-0 cells (FIG. 16A) (Chen, C. H. et al. (2013) Oncogene) for establishing stable clones. These stable cell lines were exposed to increasing concentrations of cisplatin, paclitaxel, erlotinib or dasatinib for 72 hours. […] These toxicities were repressed by enforced expression of V5-tagged wild type MARCKS, but not by overexpression of the S159/163A mutant.

H1650 and H1975 cells = settings: 0.5 μM erlotinib alone; 48 hours
Description: The combinatorial effect of MPS peptide with erlotinib on cancer cell lines. Two chemoresistant lung cancer cells, H1650 (Left) and H1975 (Right) cells were respectively co-treated with various dosages of erlotinib and 50 μM MPS peptide. After 48 hours, cell viability was determinate by MTS assay. *, P<0.05.
Two erlotinib resistant cell lines, H1975 (left) and H1650 (right), were co-treated with various dosages of erlotinib and 50 μM MPS peptide. After 48 hours, cell viability was determined by MTS assay. *, P<0.05.
Cells were seeded onto 96-well plates at a density of 5-10×10^3 cells per well and cultured for the indicated treatment. Cell viability was evaluated using a MTS assay kit (Promega, Madison, Wis.). Twenty microliters of the combined MTS/PMS solution was added into each well, incubated for 3 hours at 37° C., and the absorbance was measured at 490 nm by using an ELISA reader.

A549 cells = assay: MTS drug sensitivity of MARCKS-knockdown cells; type: cell-based, human; settings: stable MARCKS-knockdown A549 cells versus control shRNA; 72 hours
Description: as §1
For enforced expression of V5-tagged MARCKS in CL1-0, lung cancer cells were transfected with pcDNA3.1-MARCKS, pcDNA3.1-S159/163A MARCKS or pcDNA3.1 vector using lipofectamine reagent (Invitrogen), according to the manufacturer's protocol. After culturing in medium containing with 400 μg/mL of G418 (Invitrogen) for 2-3 weeks, individual clones were isolated. Clones that expressed the MARCKS cDNA coding region were maintained in medium containing 200 μg/mL of G418 and used for further investigation. Applicants also established a MARCKS-mixed knockdown stable A549 transfectant. […]

[1] = system: lung cancer cells with low phospho-MARCKS levels; assay: MTS cell viability, lung cancer cell lines with low phospho-MARCKS levels; type: cell-based, human; settings: various concentrations, 72 hours
Description: (§2) After 72 hours of peptide treatment, the number of viable cells was visualized by using crystal violet staining. A representative example of three independent experiments is shown. […] Cells were incubated with various concentrations of MPS peptide for 72 hours and then subjected to MTS assays. 200 μM polyamine and aspartates-substituted mutant (Mut) peptide served as peptide controls (n=3).

[2] = system: normal human bronchial epithelial cells; assay: Crystal violet staining of viable normal cells after peptide treatment; type: cell-based; settings: 50 μM or various concentrations; 72 hours
Description: After 72 hours of peptide treatment, the number of viable cells was visualized by using crystal violet staining. A representative of three independent experiments.
as §2

[3] = system: cancer cell lines (H1975, HCT116, H1650, CL1-5 and others); assay: MTS cell viability assay, cancer cell lines; type: cell-based; settings: H1975, HCT116, H1650 and CL1-5 cells; 72 hours; listed as MPS peptide
Description: Top, cells were incubated with various concentrations of MPS peptide for 72 hours and then subjected to a MTS assay for analysis of cell viability. Polyamine served as a peptide control. *, P<0.05 compared with untreated cells. The HBE1 cell line is a normal bronchial epithelial cell line. Bottom, ethnicities of the cancer cell lines used for MTS assay.
FIGS. 13A-13G show MPS peptide suppresses cancer cell proliferation and also induces apoptosis in these cells through direct downregulation of MARCKS activation. (A) Determination of MARCKS phosphorylation levels after 24 hours of MPS peptide treatment. Lysates from 1-100 μM MPS peptide-treated H1975 cells were subjected to western blot analysis. (B) Levels of PIP3 in drug resistant cancer cell lines after MPS peptide treatment. Cells were treated with 10, 50 or 100 μM MPS peptide. After 24 hours of treatment, PIP3 lipids were extracted from these cells and analyzed by a PIP3 ELISA kit. *P<0.05 compared with untreated cells. […] (E) Cells were treated with the indicated concentrations of MPS peptide and colonies were counted after 10 days of treatment using crystal violet staining (F) MPS treatment augments cell death. […] The percentages of apoptotic cells were quantified by flow cytometry (top), and presented as mean±SD of three experiments (bottom). *, P<0.05 versus untreated cells (Con). […]

[4] = Tolerability upon systemic administration; type: in vivo; settings: systemic administration in mice
[5] = system: MARCKS phosphorylation (Ser159/163); assay: Western blot of MARCKS phosphorylation in peptide-treated cells; type: cell-based, human; settings: 100 μM peptide, 24 hours, H1650 or H1975 cells
Description: The levels of MARCKS phosphorylation in chemoresistant cancer cell lines after 24 hours of MPS or mutant (Mut) peptide treatment. Lysates form 100 μM MPS-or Mut peptide-treated H1650 or H1975cells were subjected to immunoblotting. The sequences of MARCKS MPS peptide consisted of amino acids 152 to 176 from the wild-type protein (SEQ ID NO: 9). The sequences of mutated MPS peptide (Mut) (SEQ ID NO: 14) had the replacement of serine residues (S) by aspartate (D) and are unable to be recognized by PKC. The underline represents the PIP2 binding site.
FIGS. 13A-13G show MPS peptide suppresses cancer cell proliferation and also induces apoptosis in these cells through direct downregulation of MARCKS activation. (A) Determination of MARCKS phosphorylation levels after 24 hours of MPS peptide treatment. Lysates from 1-100 μM MPS peptide-treated H1975 cells were subjected to western blot analysis. (B) Levels of PIP3 in drug resistant cancer cell lines after MPS peptide treatment. Cells were treated with 10, 50 or 100 μM MPS peptide. After 24 hours of treatment, PIP3 lipids were extracted from these cells and analyzed by a PIP3 ELISA kit. *P<0.05 compared with untreated cells. (C) Downregulation of AKT phosphorylation by MPS peptide treatment, but not by Mut peptide. Cells were treated with 100 μM MPS or Mut peptide for 24 hours. Lysates were immunoblotted with the indicated antibodies. (D) Cell viability analysis of six cancer cell lines and human bronchial epithelial cells (HBE1) upon MPS treatment. Cells were incubated with various concentrations of MPS peptide for 72 hours and then subjected to MTS assays. Polylysine served as a peptide control. n=4, *P<0.05 compared with untreated cells (Con). (E) Cells were treated with the indicated concentrations of MPS peptide and colonies were counted after 10 days of treatment using crystal violet staining (F) MPS treatment augments cell death. […] The percentages of apoptotic cells were quantified by flow cytometry (top), and presented as mean±SD of three experiments (bottom). *, P<0.05 versus untreated cells (Con). […]

H1975 cells = assay: Subcutaneous H1975 xenograft, peptide treatment; type: in vivo, nude mice; settings: i.p., 28 mg/kg every three days for 7 injections
Description: FIGS. 14A-14F show suppressive effects of MPS peptide on cancer growth and metastasis in vivo. (A-C) Suppression of tumorigenesis by MPS peptide. Nude mice bearing subcutaneous tumors were treated for 21 days with intraperitoneal injections of PBS, Mut or MPS peptide at the dosage of 28 mg/kg/3 days. Tumor appearance and volumes were measured and data was presented as mean±SD (n=5, A). A representative photo of primary tumors from subcutaneous tissue of nude mice was shown (B, left). The tumor weights were average values from five mice per group and data were shown as mean±SE (B, right). * P<0.05 as compared with PBS group. […] Top, a representative photo of primary tumors from subcutaneous tissue of nude mice. Bottom, tumor weights are average values from six mice per group. Data were shown as mean±SE. *P<0.01 as compared to PBS-treated group. (E) Inhibition of lung cancer metastasis by MPS peptide. Dissociated PC9 cells were orthotopically injected into the left lobe of the mouse lung. […] (F) Quantification of the average pulmonary metastasis nodules from mice with injected cancer cells and treated with […] or MPS peptide as described (*P<0.05 versus PBS).
To determine the anti-cancer effect of the MPS peptide in vivo, H1975 cells were injected subcutaneously into nude mice. […] After treatment for 21 days, the animals were sacrificed to evaluated tumor weights.

## N.N.[Cl][Pt][Cl] [cisplatin]
CL1-0 cells
  Cell viability: dose-dependent decrease of cell viability

## C#Cc1cccc(Nc2ncnc3cc(OCCOC)c(OCCOC)cc23)c1 [erlotinib]
H1650 and H1975 cells
  Cell viability compared to untreated cells: no significant decrease in cell viability
CL1-0 cells
  Cell viability: dose-dependent decrease of cell viability

## 5′-GAGCGCTTCTCCTTCAAGAA-3′ (expressed or natural sequence) [MARCKS shRNA-c, common MARCKS-specific short hairpin RNA]
A549 cells
  Sensitivity to cisplatin, paclitaxel, erlotinib, dasatinib: enhanced sensitivity to these drugs

## CC(C)C[C@H](NC(=O)[C@H](CCCCN)NC(=O)[C@H](Cc1ccccc1)NC(=O)[C@H](CO)NC(=O)[C@H](CCCCN)NC(=O)[C@H](CCCCN)NC(=O)[C@H](Cc1ccccc1)NC(=O)[C@H](CO)NC(=O)[C@H](Cc1ccccc1)NC(=O)[C@H](CCCNC(=N)N)NC(=O)[C@H](CCCCN)NC(=O)[C@H](CCCCN)NC(=O)[C@H](CCCCN)NC(=O)[C@H](CCCCN)NC(=O)[C@@H](N)CCCCN)C(=O)N[C@@H](CO)C(=O)NCC(=O)N[C@@H](Cc1ccccc1)C(=O)N[C@@H](CO)C(=O)N[C@@H](Cc1ccccc1)C(=O)N[C@@H](CCCCN)C(=O)N[C@@H](CCCCN)C(=O)N[C@@H](CC(N)=O)C(=O)N[C@@H](CCCCN)C(=O)N[C@@H](CCCCN)C(=O)O [MPS] (H-KKKKKRFSFKKSFKLSGFSFKKNKK-OH)
[1]
  Cytotoxicity in lung cancer cells with low phospho-MARCKS levels: did not observe any cytotoxicity
[2]
  Cytotoxicity in normal human bronchial epithelial cells: did not observe any cytotoxicity
[3]
  Cytotoxic / anti-proliferative effect on TKIs resistant cancer cells: cytotoxicity effect of MPS peptide is obvious; also recorded: obvious anti-proliferative effect
[4]
  Tolerability: well tolerated upon systemic administration in mice

## KKKKKRFDFKKDFKLDGFDFKKNKK [Mut, aspartates-substituted mutant MPS peptide used as control]
[5]
  Suppression of p-MARCKS: no suppression
[5]; listed as Mut peptide
  Suppression of p-MARCKS: not in Mut peptide-treated cells
H1975 cells
  Tumor size: continuous growth

## CC(=O)O[C@H]1C(=O)[C@@]2(C)[C@H]([C@H](OC(=O)c3ccccc3)[C@]3(O)C[C@H](OC(=O)[C@H](O)[C@@H](NC(=O)c4ccccc4)c4ccccc4)C(C)=C1C3(C)C)[C@]1(OC(C)=O)CO[C@@H]1C[C@@H]2O [paclitaxel]
CL1-0 cells
  Cell viability: dose-dependent decrease of cell viability
